Experimental findings from EPA's ToxValDB 9.5 (doi:10.2903/j.efsa.2011.2152) are described below.

Values after ≈ are worked out from the molar mass of the structure shown.

The test system of data set [1] is Aphidius rhopalosiphi. In words: LR50; higher = less toxic. The settings on record: not reported; mortality.
Data set [2] concerns Typhlodromus pyri. Briefly: LR50; higher = less toxic. The settings on record: not reported; mortality.
The subject of data set [3] is Tagia sp. The settings on record: acute; duration: 14 days; mortality.
Data set [4] concerns Oncorhynchus mykiss. As to conditions: acute; duration: 96 hours; mortality.
In data set [5] the test system is Cyprinus carpio. The settings on record: chronic/long-term; duration: 28 days.
For data set [6], the system named is Rattus norvegicus.
For data set [7], the system named is Bird. The settings on record: reproductive; mortality.
Data set [8] concerns Oryctolagus sp. As to conditions: reproduction developmental; body weight.
For data set [9], the system named is Daphnia magna. As to conditions: chronic/long-term; duration: 21 days.
Data set [10] concerns Coturnix japonica. As to conditions: acute; oral; mortality.

The NOAEL is the highest tested level that showed no adverse finding. As to `O=C(O)COc1ccc2ccccc2c1` [2-Naphthoxyacetic acid], the results for the LR50 in data set [1] and in data set [2] were more than 100 g/ha and more than 80 g/ha, respectively. Also, the LC50 came out at 0.045 g/ha in data set [3] and 2.39 mg/L (≈ 11.8 µM) in data set [4]. Further, the results for the NOEC in [5], in data set [7] and in data set [9] were 10 mg/L, 10 mg/kg-day and 6.7 mg/L, respectively. The LD50 is 1420 mg/kg-day in [6] (acute, oral, F, mortality) and more than 2000 mg/kg-day in data set [10]. Also, the NOAEL in data set [6] (developmental, development) was determined as 60 mg/kg-day; in data set [6] (reproduction developmental, mortality), 30 mg/kg-day; in data set [6] (subchronic, duration: 90 days, oral, organ weight) it was 10 mg/kg-day; in data set [8] it was 60 mg/kg-day.
